Where a SMILES comes first, the peptide text is derived from it. Bridges are numbered along the chain shown (N, C = ends).
Key:
[1] = system: healthy subjects; conditions: in vivo
Description: A Phase 1a/1b, randomized, placebo-controlled, crossover study with the peptide [sequence] (SEQ ID NO: 1) in healthy subjects was performed. The study population included men and women in good general health.
A single ascending dose (SAD) group included four cohorts receiving 60 mg/day (cohorts SAD1 and SAD2), 180 mg/day (cohort SAD3), or 540 mg/day (cohort SAD4) of the peptide or placebo. […] All doses were administered orally. […] Seven days after the end of dosing, this group was then switched to receiving placebo once a day for seven days, followed by another 24-hour period of sleep deprivation. then crossing to 540 mg of peptide once a day for 7 days. In another group (n=7, with one participant withdrawing after initiation for personal reasons), the inverse dose regimen was used, with participants starting with placebo and the crossing over to 540 mg of peptide once a day.

[2] = system: mouse; test: Tail suspension test (TST) with vasopressin receptor inhibitors (Example 1); assay type: in vivo
From the text: NO: 1) is either AVPR1A or AVPR2 (FIGS. 1-2).

[3] = system: mouse; test: Mouse tail suspension test with felypressin (Example 5); assay type: in vivo
Description: The effect of orally administered felypressin, a selective AVPR1A agonist, on antidepressant activity in the mouse tail suspension test was evaluated. Felypressin at 0.03 mg/kg, 0.1 mg/kg, and 0.3 mg/kg was compared to the peptide […] (SEQ ID NO: 1) at 0.3 mg/kg (n=6 per group). The effect of orally administered felypressin (0.1 mg/kg) was also compared to the effect of orally administered felypressin (0.1 mg/kg) plus the AVPR1A/AVPR2 inhibitor conivaptan (3 mg/kg) (n=7 per group).

[4] = system: mouse; test: Mouse tail suspension test with desmopressin (Example 6); assay type: in vivo; conditions: oral desmopressin 0.03, 0.1, 0.3, 1.0 mg/kg vs felypressin 0.1 mg/kg
Description: Desmopressin at 0.03 mg/kg, 0.1 mg/kg, and 0.3 mg/kg was compared to felypressin at 0.1 mg/kg (n=6 per group) in a first study. Desmopressin at 0.1 mg/kg, 0.3 mg/kg, and 1.0 mg/kg was compared to felypressin at 0.1 mg/kg (n=6 per group) in a first study.

CC(C)C[C@H](N)C(=O)N[C@@H](CO)C(=O)N[C@@H](CO)C(=O)N[C@H](C(=O)N[C@@H](CCC(N)=O)C(=O)N[C@@H](C)C(=O)N[C@@H](CCC(N)=O)C(=O)N[C@@H](CCC(N)=O)C(=O)N[C@@H](CO)C(=O)N[C@@H](Cc1ccc(O)cc1)C(=O)O)[C@@H](C)O [LSSTQAQQSY (SEQ ID NO: 1), LSSTQAQQSY] (H-LSSTQAQQSY-OH; N-terminus and C-terminus assumed)
Vital signs, electrocardiography (ECG) data, and physical examinations [1]: normal

Cc1nc2c([nH]1)-c1ccccc1N(C(=O)c1ccc(NC(=O)c3ccccc3-c3ccccc3)cc1)CC2 [conivaptan]
Blocking of LSSTQAQQSY (SEQ ID NO: 1) activity in a tail suspension test (reduced TST immobility) ([2]; low doses of inhibitor): blocks | Blocking of LSSTQAQQSY (SEQ ID NO: 1) activity in a tail suspension test (reduced TST immobility) ([2]; mouse, in vivo): blocks | Blocking of felypressin activity in the tail suspension test ([3]; oral felypressin 0.1 mg/kg plus conivaptan 3 mg/kg): blocks

NC(=O)CC[C@@H]1NC(=O)[C@H](Cc2ccccc2)NC(=O)[C@H](Cc2ccc(O)cc2)NC(=O)CCSSC[C@@H](C(=O)N2CCC[C@H]2C(=O)N[C@H](CCCN=C(N)N)C(=O)NCC(N)=O)NC(=O)[C@H](CC(N)=O)NC1=O [desmopressin, 1-desamino-8-D-arginyl vasopressin]
Antidepressant activity in the mouse tail suspension test, compared to felypressin [4]: less of an effect than felypressin

NCCCC[C@H](NC(=O)[C@@H]1CCCN1C(=O)[C@@H]1CSSC[C@H](N)C(=O)N[C@@H](Cc2ccccc2)C(=O)N[C@@H](Cc2ccccc2)C(=O)N[C@@H](CCC(N)=O)C(=O)N[C@@H](CC(N)=O)C(=O)N1)C(=O)NCC(N)=O [felypressin] (H-CFFQNCPKG-NH2; disulfide 1-6)
Antidepressant activity in the mouse tail suspension test ([3]; orally administered, 0.03, 0.1 and 0.3 mg/kg): induces an antidepressant effect

COc1ccc(S(=O)(=O)N2C(=O)[C@@](c3ccccc3OC)(N3C[C@H](O)C[C@H]3C(=O)N(C)C)c3cc(Cl)ccc32)c(OC)c1 [nelivaptan]
Blocking of LSSTQAQQSY (SEQ ID NO: 1) activity in a tail suspension test (reduced TST immobility) ([2]; mouse, in vivo): blocks

Cc1ccccc1C(=O)Nc1ccc(C(=O)N2CCCC(O)c3cc(Cl)ccc32)c(C)c1 (centres unmarked) [tolvaptan]
Blocking of LSSTQAQQSY (SEQ ID NO: 1) activity in a tail suspension test (reduced TST immobility) ([2]; mouse, in vivo): does not block

Source: patent US20260207702A1, “USE OF AVPR1A AGONISTS” (Viage Therapeutics Inc., priority 2022, published 2026)
